The values below come from ChEMBL document CHEMBL5506074, “Discovery and Optimization of Tetrahydroisoquinoline Derivatives To Enhance Lysosome Biogenesis as Preclinical Candidates for the Treatment of Alzheimer's Disease” (J Med Chem, 2024).

What all share (assay type): functional
Assay [1] can be described thus: Induction of TFEB nuclear translocation in human HeLa cells expressing EGFP at 10 uM measured at 6 hrs by fluorescence microscopic analysis.
Assay [2] can be described thus: Induction of TFEB nuclear translocation in human HeLa cells expressing EGFP at 10 uM measured at 3 hrs by fluorescence microscopic analysis.
The nature of assay [3]: Induction of TFEB nuclear translocation in human HeLa cells expressing EGFP at 30 uM measured at 3 hrs by fluorescence microscopic analysis.
A short description of assay [4]: Induction of TFEB nuclear translocation in human HeLa cells expressing EGFP at 30 uM measured at 6 hrs by fluorescence microscopic analysis.

On to `COc1cc2c(cc1C)C(CCc1c[nH]c3ccccc13)N(CC1CCOCC1)CC2` (centres undefined), for which the Activity in assay [1] is 30%; in assay [2], 18%; in assay [3], 76%; in assay [4], 81%.
On the same counts, the results for `Fc1ccc2[nH]cc(CCC3NCCc4cc5c(cc43)OCO5)c2c1` (centres undefined) are 54%, 36%, 88% and 92%.
On the same counts, the results for `OCn1cc(CCC2c3cc4c(cc3CCN2CC2CCOCC2)OCO4)c2ccccc21` (centres undefined) are 5%, 5%, 8% and 8%.
On the same counts, the results for `Oc1ccc2[nH]cc(CCC3c4cc5c(cc4CCN3CC3CCOCC3)OCO5)c2c1` (centres undefined) are 21%, 15%, 72% and 81%.
`O=CN1CCc2cc3c(cc2C1CCc1c[nH]c2ccccc12)OCO3` (centres undefined): the Activity in assay [1] is given as 5%; in assay [2], 6%; in assay [3], 6%; in assay [4] it was 4%.
Turning to `Cn1cc(CCC2c3cc4c(cc3CCN2CC2CCOCC2)OCO4)c2ccccc21` (centres undefined), the Activity in assay [1] came to 5%; in assay [2], 5%; in assay [3], 26%; in assay [4], 26%.
Take `Fc1ccc2[nH]cc(CC[C@@H]3c4cc5c(cc4CCN3CC3CCOCC3)OCO5)c2c1`: the Activity in assay [1] was 33%; in assay [2], 29%; in assay [3], 70%; in assay [4], 82%.
On the same counts, the results for `COCCN1CCc2cc3c(cc2C1CCc1c[nH]c2ccccc12)OCO3` (centres undefined) are 30%, 30%, 70% and 80%.
On the same counts, the results for `c1ccc2[nH]c(CCC3c4cc5c(cc4CCN3CC3CCOCC3)OCO5)cc2c1` (centres undefined) are 5%, 5%, 39% and 39%.
On the same counts, the results for `c1ccc2c(CCC3c4cc5c(cc4CCN3CC3CCOCC3)OCO5)csc2c1` (centres undefined) are 5%, 5%, 15% and 20%.
Take `c1ccc2c(CCC3c4cc5c(cc4CCN3Cc3cncnc3)OCO5)c[nH]c2c1` (centres undefined): the Activity in assay [1] was determined as 10%; in assay [2] it was 10%; in assay [3], 20%; in assay [4], 20%.
Consider `CCOc1cc2c(cc1OC)CCN(CC1CCOCC1)C2CCc1c[nH]c2ccccc12` (centres undefined), for which the Activity came out at 28% in assay [1], 17% in assay [2], 75% in assay [3] and 82% in assay [4].
On the same counts, the results for `N#Cc1ccc2[nH]cc(CCC3c4cc5c(cc4CCN3CC3CCOCC3)OCO5)c2c1` (centres undefined) are 10%, 10%, 64% and 64%.
Consider `CCN1CCc2cc3c(cc2C1CCc1c[nH]c2ccccc12)OCO3` (centres undefined), for which the Activity in assay [1] was 22%; in assay [2], 9%; in assay [3], 65%; in assay [4], 84%.
On the same counts, the results for `Cc1ccc2[nH]cc(CCC3NCCc4cc5c(cc43)OCO5)c2c1` (centres undefined) are 10%, 10%, 45% and 60%.
On the same counts, the results for `c1ccc2c(CCC3c4cc5c(cc4CCN3CC3CCCCC3)OCO5)c[nH]c2c1` (centres undefined) are 8%, 7%, 11% and 42%.
On the same counts, the results for `Clc1ccc2[nH]cc(CCC3c4cc5c(cc4CCN3CC3CCOCC3)OCO5)c2c1` (centres undefined) are 20%, 15%, 83% and 92%.
As for `c1ccc2c(CCC3c4cc5c(cc4CCN3Cc3ccncc3)OCO5)c[nH]c2c1` (centres undefined), the Activity worked out at 50% in assay [1], 45% in assay [2], 80% in assay [3] and 90% in assay [4].
On the same counts, the results for `COc1cc2c(cc1OC)C(CCc1c[nH]c3ccc(Br)cc13)N(CC1CCOCC1)CC2` (centres undefined) are 63%, 53%, 89% and 94%.
On the same counts, the results for `COc1ccc2[nH]cc(CC[C@H]3c4cc(OC)c(OC)cc4CCN3CC3CCOCC3)c2c1` are 61%, 44%, 85% and 91%.
On the same counts, the results for `Fc1ccc2[nH]cc(CC[C@H]3c4cc5c(cc4CCN3CC3CCOCC3)OCO5)c2c1` are 60%, 56%, 90% and 98%.
On to `COc1cc2c(cc1OC)C(CCc1c[nH]c3ccc(C)cc13)N(CC1CCOCC1)CC2` (centres undefined), for which the Activity in assay [1] is 53%; in assay [2], 38%; in assay [3] it was 92%; in assay [4], 91%.
On the same counts, the results for `Cc1ccc2[nH]cc(CCC3c4cc5c(cc4CCN3CC3CCOCC3)OCO5)c2c1` (centres undefined) are 30%, 20%, 83% and 85%.
Turning to `CCCN1CCc2cc3c(cc2C1CCc1c[nH]c2ccccc12)OCO3` (centres undefined), the Activity in assay [1] worked out at 12%; in assay [2], 11%; in assay [3], 55%; in assay [4] it was 80%.
For `CC(C)CN1CCc2cc3c(cc2C1CCc1c[nH]c2ccccc12)OCO3` (centres undefined), the Activity is on record as 20% in assay [1], 20% in assay [2], 74% in assay [3] and 82% in assay [4].
On to `COc1cc2c(cc1F)C(CCc1c[nH]c3ccccc13)N(CC1CCOCC1)CC2` (centres undefined), for which the Activity in assay [1] came out at 31%; in assay [2] it was 17%; in assay [3] it was 70%; in assay [4], 79%.
Consider `NC(=O)CN1CCc2cc3c(cc2C1CCc1c[nH]c2ccccc12)OCO3` (centres undefined), for which the Activity in assay [1] was 5%; in assay [2], 5%; in assay [3] it was 20%; in assay [4], 20%.
As for `c1ccc2c(c1)ccn2CCC1c2cc3c(cc2CCN1CC1CCOCC1)OCO3` (centres undefined), the Activity is recorded as 5% in assay [1], 5% in assay [2], 8% in assay [3] and 5% in assay [4].
Consider `CC(C)CCN1CCc2cc3c(cc2C1CCc1c[nH]c2ccccc12)OCO3` (centres undefined), for which the Activity in assay [1] is reported as 20%; in assay [2], 20%; in assay [3], 70%; in assay [4], 80%.
In the case of `c1ccc(COc2ccc3[nH]cc(CCC4c5cc6c(cc5CCN4CC4CCOCC4)OCO6)c3c2)cc1` (centres undefined), the Activity in assay [1] is listed as 30%; in assay [2] it was 12%; in assay [3], 75%; in assay [4], 88%.
On the same counts, the results for `COc1ccc2[nH]cc(CC[C@@H]3c4cc(OC)c(OC)cc4CCN3CC3CCOCC3)c2c1` are 37%, 23%, 74% and 80%.
On the same counts, the results for `c1ccc2c(CC[C@@H]3NCCc4cc5c(cc43)OCO5)c[nH]c2c1` are 34%, 30%, 89% and 96%.
On the same counts, the results for `c1cnc2[nH]cc(CCC3c4cc5c(cc4CCN3CC3CCOCC3)OCO5)c2c1` (centres undefined) are 10%, 10%, 64% and 64%.
With `c1ccc2c(CCC3c4cc5c(cc4CCN3CCC3CCOCC3)OCO5)c[nH]c2c1` (centres undefined), the Activity is 5% in assay [1], 5% in assay [2], 65% in assay [3] and 80% in assay [4].
On to `CC(=O)N1CCc2cc3c(cc2C1CCc1c[nH]c2ccccc12)OCO3` (centres undefined), for which the Activity is given as 7% in assay [1], 6% in assay [2], 8% in assay [3] and 10% in assay [4].
On the same counts, the results for `COc1ccc2[nH]cc(CCC3c4cc5c(cc4CCN3CC3CCOCC3)OCO5)c2c1` (centres undefined) are 76%, 74%, 88% and 98%.
On the same counts, the results for `COc1cc2c(cc1OC)C(CCc1c[nH]c3ccc(Cl)cc13)N(CC1CCOCC1)CC2` (centres undefined) are 37%, 27%, 84% and 90%.
On the same counts, the results for `c1ccc(CN2CCc3cc4c(cc3C2CCc2c[nH]c3ccccc23)OCO4)cc1` (centres undefined) are 10%, 10%, 10% and 10%.
As to `c1ccc2c(CC[C@H]3NCCc4cc5c(cc43)OCO5)c[nH]c2c1`, the Activity in assay [1] is given as 23%; in assay [2], 18%; in assay [3] it was 76%; in assay [4], 77%.
On the same counts, the results for `COc1cc2c(cc1OC)C(CCc1c[nH]c3ccc(F)cc13)N(CC1CCOCC1)CC2` (centres undefined) are 47%, 22%, 88% and 95%.
On the same counts, the results for `Brc1ccc2[nH]cc(CCC3c4cc5c(cc4CCN3CC3CCOCC3)OCO5)c2c1` (centres undefined) are 30%, 10%, 85% and 95%.
